Assay results from US8293873B2, “Combination of amino acid solution and a gelatin derivative for inhibiting renal up-take” (BioSynthema Inc., priority 2006, dated 2012).

System: kidney uptake of [177Lu-DOTA0,Tyr3]octreotate
Test: Kidney uptake of [177Lu-DOTA0,Tyr3]octreotate measured by NanoSPECT in rats
Assay type: in vivo, Male Lewis rats
Procedure: For reduction of kidney rats were injected with 20 mg Gelofusine, 100 mg lysine or the combination. Kidney uptake was measured by SPECT scans with a […] multi-pinhole camera (NanoSPECT, Bioscan) at 24 h, 5 and 7 days pi. Kidney uptake was quantified by VOI analysis.

## NCCCC[C@H](N)C(=O)O [lysine]
24 h pi, 555 MBq, 20 mg Gelofusine, 100 mg lysine or the combination, SPECT VOI analysis
  inhibition of kidney uptake of [177Lu-DOTA0,Tyr3]octreotate: 37%±6%
rats, overdose of lysine alone
  reduction of kidney uptake with an overdose of lysine alone: did not improve the reduction of the kidney uptake
